Source: the supplement of paper PMC8967900

What was measured:
Experiment in all cases: selective drug sensitivity score (sDSS, relative to normal bone marrow) (sDSS (score)); higher = more potent and effective on the cell line relative to normal bone marrow cells
Settings in all cases: 72 h
JURKAT = test system: JURKAT
MOLT-4 = test system: MOLT-4
MOLT-16 = test system: MOLT-16
697 = test system: 697
HAL-01 = test system: HAL-01
P30-OHKUBO = test system: P30-OHKUBO
NALL-1 = test system: NALL-1
CCRF-HSB2 = test system: CCRF-HSB2
ALL-SIL = test system: ALL-SIL
P12-ICHIKAWA = test system: P12-ICHIKAWA
KARPAS-45 = test system: KARPAS-45
TMD5 = test system: TMD5
KASUMI-9 = test system: KASUMI-9
MOLT-14 = test system: MOLT-14
KOPN-8 = test system: KOPN-8
COG-LL-355h = test system: COG-LL-355h
NALM-16 = test system: NALM-16
MN-60 = test system: MN-60
PF-382 = test system: PF-382
COG-LL-402h = test system: COG-LL-402h
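Note: ALL cell lines in 384-well plates, five doses spanning 10,000-fold, each plate scaled between vehicle and 100 µmol/L benzalkonium chloride controls, sDSS an adapted area-under-curve metric.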

Row | SMILES | selective drug sensitivity score (JURKAT) | selective drug sensitivity score (MOLT-4) | selective drug sensitivity score (MOLT-16) | selective drug sensitivity score 697 | selective drug sensitivity score (HAL-01) | selective drug sensitivity score (P30-OHKUBO) | selective drug sensitivity score (NALL-1) | selective drug sensitivity score (CCRF-HSB2) | selective drug sensitivity score (ALL-SIL) | selective drug sensitivity score (P12-ICHIKAWA) | selective drug sensitivity score (KARPAS-45) | selective drug sensitivity score (TMD5) | selective drug sensitivity score (KASUMI-9) | selective drug sensitivity score (MOLT-14) | selective drug sensitivity score (KOPN-8) | selective drug sensitivity score (COG-LL-355h) | selective drug sensitivity score (NALM-16) | selective drug sensitivity score (MN-60) | selective drug sensitivity score (PF-382) | selective drug sensitivity score (COG-LL-402h)
1 | Nc1nc2[nH]cnc2c(=S)[nH]1 [Thioguanine] (top concentration 10000 nM) | 12.4 | 14.2 | 15.2 | 8.84 | 9.44 | 11.6 | 8.64 | 14.7 | 12.8 | 13.6 | 15 | -3.46 | 11.2 | 15.7 | 13.2 | 4.04 | 7.74 | 10 | 12 | 6.34
2 | CC#CC(=O)N1CC[C@@H](n2c(=O)n(-c3ccc(Oc4ccccc4)cc3)c3c(N)ncnc32)C1 [Tirabrutinib] (top concentration 1000 nM) | 0 | 0 | 0.9 | 0 | 6.5 | 0 | 3.7 | 0.8 | 0 | 0 | 2.5 | 1 | 0 | 0 | 4.1 | 0 | 0 | 0 | 0 | 5.2
3 | CC(C)C[C@@H](C(=O)N[C@H](C(=O)OC1CCCC1)c1ccccc1)[C@H](O)C(=O)NO [Tosedostat] (top concentration 10000 nM) | 2.16 | -0.54 | 10.4 | -1.54 | -3.84 | 4.96 | 0.86 | 3.16 | 1.06 | -0.24 | 8.66 | 0.46 | 2.56 | 6.46 | 10.8 | 11.4 | 3.06 | -2.44 | 5.66 | -0.74
4 | CS(=O)(=O)c1ccc(-c2cnc(N)c(C(=O)Nc3ccccc3)n2)cc1 [VE-821] (top concentration 10000 nM) | 1.64 | 3.94 | 7.94 | -0.66 | 4.54 | -0.16 | -0.66 | 4.44 | 4.94 | 3.14 | 1.54 | -0.66 | 0.84 | 0.74 | 8.74 | 5.64 | -0.66 | -0.66 | -0.56 | 0.34
5 | CNC(=O)c1ccccc1Nc1cc(Nc2ccc(N3CCOCC3)cc2OC)ncc1C(F)(F)F [VS-4718] (top concentration 10000 nM) | 1.1 | 1.9 | 6.1 | 0.7 | 8.7 | 0.4 | 8.7 | 3.5 | 4.3 | 1.7 | 7.1 | 6.8 | 2.1 | 1.1 | -3.1 | 1.3 | 0 | -3.4 | -0.3 | -4.5
6 | Cc1cccc(-c2[nH]c(CNc3ccccc3F)nc2-c2ccc3ncnn3c2)n1 [Vactosertib (TEW-7197)] (top concentration 2500 nM) | 0 | 2.3 | 10.7 | -0.5 | 0 | -0.4 | -0.4 | 5.1 | -0.5 | -0.5 | -0.5 | -0.5 | 1.4 | 0.8 | -0.5 | 1.2 | -0.4 | -0.1 | -0.5 | 1.1
7 | O=C(/C=C\n1cnc(-c2cc(C(F)(F)F)cc(C(F)(F)F)c2)n1)NNc1ccccn1 [Verdinexor] (top concentration 1000 nM) | 8.74 | 9.74 | 11.1 | 6.34 | 3.94 | 4.34 | 0.64 | 9.84 | 3.74 | 5.64 | 7.54 | 0.14 | 3.74 | 13.3 | 8.34 | 8.54 | -0.36 | 2.24 | 6.54 | 9.34
8 | CC[C@@H]1C(=O)N(C)c2cnc(Nc3ccc(C(=O)N[C@H]4CC[C@H](N5CCN(CC6CC6)CC5)CC4)cc3OC)nc2N1C(C)C [Volasertib] (top concentration 1000 nM) | 11.7 | 11.3 | 12.7 | 12.1 | 5.8 | 13.1 | 12.3 | 12.4 | 12.7 | 11.5 | 19 | 10.1 | 18.5 | 13.4 | 12.4 | 6.4 | 11.3 | 0.4 | 13.6 | 11
9 | O=C(CCCCCCC(=O)Nc1ccccc1)NO [Vorinostat] (top concentration 10000 nM) | 3.6 | 5.8 | 15.5 | 10.1 | 0.8 | 10 | -3.5 | 4.8 | 7.5 | 6.6 | 9.9 | -0.1 | 11.6 | 9.6 | 13.4 | 7.7 | 1.5 | 0.8 | 4.1 | 10.2
